Each block holds one compound with its values, some of them ahead of it.
Assays:
Type in all cases: physicochemical
[1] = Dissolution of amoxicillin particles in simulated gastric fluid
Protocol: (§1) The particles were subjected to dissolution tests in simulated gastric fluid (SGF) at pH 1.2 simulated intestinal fluid (SIF) at pH 6.8. The SGF and SIF were prepared per USP specs (USP XXII-NF XVII, pp. 1788-1789, 1990). Selected samples were also tested in SGF at pH 5.0, in pH 1.2 and 5.0 acids, and in pH 6.8 buffer. The pH 1.2 and 5.0 acids were prepared the same way as the corresponding SGF's, except no enzymes were added. Similarly, the pH 6.8 buffer was prepared the same way as the SIF, except no enzyme was added. The dissolution test was conducted using apparatus 2 assembly, as specified by USP (USP XXII-NF XVII, pp. 1578-1579, 1990). The nominal capacity of the dissolution vessel was 1000 mL. A peddle was used as the stirring element at a rotational speed of 50 rpm. The temperature was maintained at 37°+0.5° C. using a circulating water bath. The solution was sampled at 0.5, 1, and 2 hours for the test in SGF, and at 1, 3, and 6 hours for the test in SIF. A 10-mL aliquot was drawn at each sampling time through a 35 micron filter. […] The particles manufactured in this example were subjected to dissolution testing as described in Example 1. Selected particle samples were subjected to sequential dissolution testing as described in Example 2. […] The column was C-18. […] The detector was UV at 230 nm. A pure amoxicillin trihydrate (AMX1), which was calibrated with an USP reference standard, was used as the working standard. For dissolution sample analysis, the standard was dissolved in the mobile phase. For zein-coated drug analysis, both the sample and the standard were dissolved by mixing with 5 mL methanol for 2-5 minutes and then diluting with the mobile phase to the desired level.

[2] = Dissolution of amoxicillin particles in simulated intestinal fluid
Protocol: as §1

[3] = Suspension stability study: amoxicillin released in syrup; settings: 30° C.
Protocol: Samples of particles having each of the structure from Table 11 were suspended at a concentration of 250 mg amoxicillin per 5 ml in sucrose-based syrups adjusted to different pH's, the formulations of these syrups are set forth in Table 12, were stored at 30° C. and shaken daily. Samples were removed for testing at 1 hours, 1 day, 7 days and 14 days. Encapsulated drug and undissolved particulate matter were removed from the suspensions by filtration through a 35 micron filter. The clarified syrups were diluted with mobile phase of pH 5.0 potassium phosphate buffer containing 4% acetonitrile and filtered again through a 0.45 micron filter prior to analysis by high pressure liquid chromatography (HPLC). The method of quantitating the amount of amoxicillin released in the syrup solutions was adapted from the USP method for amoxicillin described on pages 2088-2089 of Supplement 1 in USP XXII-NF XVII.

[4] = Dissolution of acetaminophen (APAP) particles in simulated gastric fluid (USP apparatus 2)
Protocol: (§2) The particles were subjected to dissolution tests in simulated gastric fluid (SGF) at pH 1.2 simulated intestinal fluid (SIF) at pH 6.8. The SGF and SIF were prepared per USP specs (USP XXII-NF XVII, pp. 1788-1789, 1990). Selected samples were also tested in SGF at pH 5.0, in pH 1.2 and 5.0 acids, and in pH 6.8 buffer. The pH 1.2 and 5.0 acids were prepared the same way as the corresponding SGF's, except no enzymes were added. Similarly, the pH 6.8 buffer was prepared the same way as the SIF, except no enzyme was added. The dissolution test was conducted using apparatus 2 assembly, as specified by USP (USP XXII-NF XVII, pp. 1578-1579, 1990). The nominal capacity of the dissolution vessel was 1000 mL. A peddle was used as the stirring element at a rotational speed of 50 rpm. The temperature was maintained at 37°+0.5° C. using a circulating water bath. The solution was sampled at 0.5, 1, and 2 hours for the test in SGF, and at 1, 3, and 6 hours for the test in SIF. A 10-mL aliquot was drawn at each sampling time through a 35 micron filter. The aliquot was then filtered again through a 0.45 micron filter for HPLC analysis to determine its drug content. An HPLC method was developed for the determination of acetaminophen in zein-coated powders and in dissolution samples from various media. Zein-coated powders were dissolved in methanol for analysis. An acetaminophen USP reference standard was used for the quantitation. For zein-coated drug analysis, the standard was prepared in methanol. For dissolution sample analysis, the standard was prepared in water. Each sample or standard solution was then filtered through a 0.45 micron filter for HPLC analysis. A C-18 column connected with an UV detector at 244 nm was used for the HPLC analysis. The mobile phase was water/methanol (85/15, v/v) at a flow rate of 1.0 mL/min. The analysis time was 18-20 min/injection.

[5] = Dissolution of acetaminophen (APAP) particles in simulated intestinal fluid (USP apparatus 2)
Protocol: as §2

[6] = Suspension stability study: APAP released in syrup
Source text: The concept that stability in an aqueous suspension is primarily controlled by the exterior coating layer is supported by studies performed on acetaminophen (APAP). Acetaminophen was coated with various combinations of zein and Eudragit®. […] The composition of these syrups was similar to those used for the amoxicillin suspensions (compare Tables 12 and 14). A description of the manufacture of the APP27 particles is set forth above in Example 3; for APP32 particles in Example 3; for APP42 particles in Example 5; and for APP46 particles in Example 5. The particles identified in the tables as as "APAP" are uncoated acetaminophen. APP27 and 32 were suspended at 250 mg per 5 ml in a syrup at pH 8.1 and APP42 and 46 were each suspended at the same concentration in syrups at both pH 5.0 and 8.1 respectively. For analysis of samples in sucrose-based syrups, the samples were diluted 50-400 folds with water and then filtered through a 0.45 micron filter for HPLC analysis. The dilution was necessary for proper UW detection and to minimize the effect of matrix on column performance. The methanol content of the aqueous mobile phase was adjusted between 2 and 15%, pending the performance of the C-18 column used.

- Cumulative % Release of Amoxicillin, 0.5 hr ([1]; In SGF, pH 1.2, 0.5 hr): 53%
- Cumulative % Release of Amoxicillin, 1 hr ([1]; In SGF, pH 1.2, 1 hr): 45%
- Cumulative % Release of Amoxicillin, 2 hr ([1]; In SGF, pH 1.2, 2 hr): 36%
- release of amoxicillin in simulated gastric fluid (in words) ([1]; SGF pH 1.2): rapid release
- Cumulative % Release of Amoxicillin, 1 hr ([2]; In SIF, pH 6.8, 1 hr): 83%
- Cumulative % Release of Amoxicillin, 3 hr ([2]; In SIF, pH 6.8, 3 hr): 91%
- Cumulative % Release of Amoxicillin, 6 hr ([2]; In SIF, pH 6.8, 6 hr): 93%
- release of amoxicillin in simulated intestinal fluid (in words) ([2]; SIF pH 6.8): quite rapidly
SMILES: CC1(C)S[C@@H]2[C@H](NC(=O)[C@H](N)c3ccc(O)cc3)C(=O)N2[C@H]1C(=O)O [AMX23, amoxicillin]

- Percent Amoxicillin Released in Syrup ([3]; Syrup at pH 5.0, 1 Day): 9.3%
- Percent Amoxicillin Released in Syrup ([3]; Syrup at pH 5.0, 1 Hr): 7.4%
- Percent Amoxicillin Released in Syrup ([3]; Syrup at pH 5.0, 7 Days): 11.3%
- Percent Amoxicillin Released in Syrup ([3]; Syrup at pH 5.0, 14 Days): 9.0%
- Percent Amoxicillin Released in Syrup ([3]; Syrup at pH 6.5, 1 Day): 9.6%
- Percent Amoxicillin Released in Syrup ([3]; Syrup at pH 6.5, 1 Hr): 8.6%
- Percent Amoxicillin Released in Syrup ([3]; Syrup at pH 6.5, 7 Days): 14.6%
- Percent Amoxicillin Released in Syrup ([3]; Syrup at pH 6.5, 14 Days): 10.9%
- Percent Amoxicillin Released in Syrup ([3]; Syrup at pH 8.5, 1 Day): 2.8%
- Percent Amoxicillin Released in Syrup ([3]; Syrup at pH 8.5, 1 Hr): 19.5%
- Percent Amoxicillin Released in Syrup ([3]; Syrup at pH 8.5, 7 Days): 9.6%
- Percent Amoxicillin Released in Syrup ([3]; Syrup at pH 8.5, 14 Days): 5.7%
SMILES: CC1(C)S[C@@H]2[C@H](NC(=O)[C@H](N)c3ccc(O)cc3)C(=O)N2[C@H]1C(=O)O [AMX1, amoxicillin trihydrate]

- Cumulative % Release of APAP, 0.5 hr ([4]; In SGF, pH 1.2, 0.5 hr): 97%
- Cumulative % Release of APAP, 1 hr ([4]; In SGF, pH 1.2, 1 hr): 97%
- Cumulative % Release of APAP, 2 hr ([4]; In SGF, pH 1.2, 2 hr): 98%
- release of APAP in simulated gastric fluid (in words) ([4]; SGF pH 1.2): dissolved in gastric fluid very quickly
- Cumulative % Release of APAP, 1 hr ([5]; In SIF, pH 6.8, 1 hr): 98%
- Cumulative % Release of APAP, 3 hr ([5]; In SIF, pH 6.8, 3 hr): 101%
- Cumulative % Release of APAP, 6 hr ([5]; In SIF, pH 6.8, 6 hr): 102%
- release of APAP in simulated intestinal fluid (in words) ([5]; SIF pH 6.8): dissolved fairly rapidly
SMILES: CC(=O)Nc1ccc(O)cc1 [APP21, Acetaminophen]

- Percent APAP Released in Syrup ([6]; Table 15, syrup at pH 8.1, 1 Hr): 20.0%
- Percent APAP Released in Syrup ([6]; Table 15, syrup at pH 8.1, 28 Days): 23.0%
- Percent APAP Released in Syrup ([6]; Table 16, syrup pH 5.0, 1 Day): 31.9%
- Percent APAP Released in Syrup ([6]; Table 16, syrup pH 5.0, 1 Hr): 20.2%
- Percent APAP Released in Syrup ([6]; Table 16, syrup pH 5.0, 7 Days): 26.5%
- Percent APAP Released in Syrup ([6]; Table 16, syrup pH 5.0, 14 Days): 24.9%
- Percent APAP Released in Syrup ([6]; Table 16, syrup pH 8.1, 1 Day): 27.5%
- Percent APAP Released in Syrup ([6]; Table 16, syrup pH 8.1, 1 Hr): 7.7%
- Percent APAP Released in Syrup ([6]; Table 16, syrup pH 8.1, 7 Days): 29.8%
- Percent APAP Released in Syrup ([6]; Table 16, syrup pH 8.1, 14 Days): 28.0%
SMILES: CC(=O)Nc1ccc(O)cc1 [APAP, acetaminophen]

Reference: patent US5160742A, “System for delivering an active substance for sustained release” (Abbott Laboratories, priority 1991, dated 1992)
